Data: article PMC8227285, “Functional Characterization of the Dopaminergic Psychostimulant Sydnocarb as an Allosteric Modulator of the Human Dopamine Transporter” (Biomedicines, 2021)
Read-outs that look alike come from different tables or passages of the source.

Tests used:
Y335A-DAT [1] = target: T1, Y335A-DAT (Homo sapiens, UniProt Q01959, Y335A); details: cited from earlier work
T1 construct: expressed in transfected cells; host or cells: COS-7

Y156F-DAT [2] = target: T2, Y156F-DAT (Homo sapiens, UniProt Q01959, Y156F); details: cited from earlier work
T2 construct: expressed in transfected cells; host or cells: COS-7
T2 sequence (Q01959 whole entry Y156F): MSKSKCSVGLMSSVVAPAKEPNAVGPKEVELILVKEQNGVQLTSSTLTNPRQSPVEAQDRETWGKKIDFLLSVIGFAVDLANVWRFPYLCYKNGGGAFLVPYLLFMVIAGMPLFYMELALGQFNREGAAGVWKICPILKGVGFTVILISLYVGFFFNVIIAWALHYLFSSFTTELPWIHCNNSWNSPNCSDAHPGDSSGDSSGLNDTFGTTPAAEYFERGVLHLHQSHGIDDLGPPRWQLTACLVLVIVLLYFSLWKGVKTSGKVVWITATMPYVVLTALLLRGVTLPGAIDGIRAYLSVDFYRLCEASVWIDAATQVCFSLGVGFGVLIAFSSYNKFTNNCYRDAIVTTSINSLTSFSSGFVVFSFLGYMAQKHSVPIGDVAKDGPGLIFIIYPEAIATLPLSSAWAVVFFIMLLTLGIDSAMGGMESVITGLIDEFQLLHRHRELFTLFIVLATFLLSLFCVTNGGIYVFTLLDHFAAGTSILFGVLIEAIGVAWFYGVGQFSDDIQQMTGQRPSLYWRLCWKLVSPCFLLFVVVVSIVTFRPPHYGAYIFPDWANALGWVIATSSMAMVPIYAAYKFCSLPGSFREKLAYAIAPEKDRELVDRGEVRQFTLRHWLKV

DAT-XC/W84C mutant = target: T3, DAT-XC/W84C mutant (Homo sapiens, UniProt Q01959, C306A/W84C); assay: Substituted cysteine scanning (SCAM) MTSEA-biotin biotinylation in HEK-293 cells; type: cell-based
T3 construct: expressed in transfected cells; host or cells: HEK-293
T3 sequence (Q01959 1-620 W84C/C306A): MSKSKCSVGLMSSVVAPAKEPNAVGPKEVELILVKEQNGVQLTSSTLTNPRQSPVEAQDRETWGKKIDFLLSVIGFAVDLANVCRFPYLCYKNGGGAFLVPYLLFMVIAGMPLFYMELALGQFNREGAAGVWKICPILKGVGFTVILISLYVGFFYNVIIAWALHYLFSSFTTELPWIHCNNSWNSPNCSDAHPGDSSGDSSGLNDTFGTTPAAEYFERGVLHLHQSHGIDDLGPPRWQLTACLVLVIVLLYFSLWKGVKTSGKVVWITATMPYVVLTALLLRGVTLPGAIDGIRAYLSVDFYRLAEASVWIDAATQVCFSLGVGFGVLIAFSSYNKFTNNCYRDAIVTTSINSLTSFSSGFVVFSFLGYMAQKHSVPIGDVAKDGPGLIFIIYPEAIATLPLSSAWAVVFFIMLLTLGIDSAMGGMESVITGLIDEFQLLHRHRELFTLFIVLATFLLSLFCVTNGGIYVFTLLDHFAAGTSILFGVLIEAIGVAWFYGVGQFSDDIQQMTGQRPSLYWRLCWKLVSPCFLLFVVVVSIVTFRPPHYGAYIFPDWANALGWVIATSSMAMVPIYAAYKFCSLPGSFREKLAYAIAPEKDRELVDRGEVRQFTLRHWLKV
Experimental: Briefly, HEK-293 cells were transiently transfected and cultured to confluency in a 6-well plate. The cells were washed with ice-cold PBS-CM (pH 7.4) twice and incubated at 4 °C with vehicle or sydnocarb (0.5 or 2 μM) for 10 min, followed by the addition of MTSEA-biotin (125 μM, final concentration). After 10-min incubation at 4 °C, the biotinylation was quenched by aspirating the liquid and washing the cells with 1-mM DTT in PBS-CM, followed by a final wash with PBS-CM only. The cells were lysed in 600 μL of TNE lysis buffer (pH 7.4) containing protease inhibitors (100×) for 40 min at 4 °C. The cells were collected and centrifuged at 12,000× g for 10 min at 4 °C. The supernatant was collected, of which 30 μL was mixed with DTT (0.5 M, 5 μL) and LDS Nu-page (15 μL) for the total lysate sample, and saved at −20 °C. Four hundred and fifty microliters of the supernatant were incubated overnight at 4 °C with 50 μL of 50% slurry of high-capacity neutravidin agarose resin. The beads containing “biotinylated” proteins were washed with ice-cold TNE lysis three times, followed by a final wash with PBS-CM, and then mixed with LDL Nu-page (15 μL), DTT (0.5 M, 5 μL), and water (30 μL). […] Densities of he DAT bands were analyzed with an Odyssey imaging system and associated ImageStudio software (LI-COR, Lincoln, NE, USA).

hDAT = target: T4, hDAT (Homo sapiens, UniProt Q01959); assay: [3H]-dopamine transport inhibition assay in transiently transfected COS-7 cells; type: cell-based; details: for IC50: mean ± SEM
T4 construct: expressed in transfected cells; host or cells: COS-7
T4 sequence (Q01959 whole entry): as the sequence (Q01959 whole entry Y156F) above, with F156Y counted along it
Experimental: (§1) Transiently transfected COS-7 cells (expressing hDAT, hNET, or hSERT) were plated in 96-well plates. Uptake experiments were performed 2 days later. The media was removed, and the cells were washed with PBS-CM. Following washing, the cells were incubated for 10 min with various concentrations of sydnocarb, and the uptake was initiated by adding [^3H]-dopamine to a final concentration of 25 nM. The uptake was allowed to continue for 10 min at room temperature and was terminated by washing twice with PBS-CM. The cells were solubilized in a scintillation cocktail and counted on a microplate scintillation and luminescence counter (PerkinElmer, Waltham, MA, USA). Data were fitted to a Hill equation by a nonlinear regression analysis to obtain the IC50 values.

hSERT = target: T5, hSERT (Homo sapiens, UniProt P31645); assay: Radioactive neurotransmitter transport inhibition assay in transiently transfected COS-7 cells; type: cell-based; details: hSERT transiently transfected COS-7 cells, mean ± SEM, three independent experiments (Figure 1A)
T5 construct: expressed in transfected cells; host or cells: COS-7
T5 sequence (P31645 whole entry): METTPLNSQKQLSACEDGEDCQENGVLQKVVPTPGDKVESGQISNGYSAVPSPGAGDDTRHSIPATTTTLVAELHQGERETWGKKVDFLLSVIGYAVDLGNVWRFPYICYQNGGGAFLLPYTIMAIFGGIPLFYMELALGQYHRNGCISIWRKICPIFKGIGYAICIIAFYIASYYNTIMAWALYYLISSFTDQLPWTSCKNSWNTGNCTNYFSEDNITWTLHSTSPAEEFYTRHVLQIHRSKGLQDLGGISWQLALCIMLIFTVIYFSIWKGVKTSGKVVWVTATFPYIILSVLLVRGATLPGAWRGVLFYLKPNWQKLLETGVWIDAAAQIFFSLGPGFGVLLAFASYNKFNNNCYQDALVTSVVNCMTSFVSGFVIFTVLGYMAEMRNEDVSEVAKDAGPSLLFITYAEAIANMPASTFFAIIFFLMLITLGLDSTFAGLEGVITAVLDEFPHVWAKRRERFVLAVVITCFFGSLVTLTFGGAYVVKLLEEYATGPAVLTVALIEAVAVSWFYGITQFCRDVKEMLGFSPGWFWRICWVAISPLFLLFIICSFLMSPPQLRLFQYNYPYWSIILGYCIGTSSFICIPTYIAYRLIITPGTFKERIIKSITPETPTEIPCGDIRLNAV
Experimental: as §1

hNET = target: T6, hNET (Homo sapiens, UniProt P23975); assay: as above; type: cell-based; details: hNET transiently transfected COS-7 cells; mean ± SEM, three independent experiments (Figure 1A)
T6 construct: expressed in transfected cells; host or cells: COS-7
T6 sequence (P23975 whole entry): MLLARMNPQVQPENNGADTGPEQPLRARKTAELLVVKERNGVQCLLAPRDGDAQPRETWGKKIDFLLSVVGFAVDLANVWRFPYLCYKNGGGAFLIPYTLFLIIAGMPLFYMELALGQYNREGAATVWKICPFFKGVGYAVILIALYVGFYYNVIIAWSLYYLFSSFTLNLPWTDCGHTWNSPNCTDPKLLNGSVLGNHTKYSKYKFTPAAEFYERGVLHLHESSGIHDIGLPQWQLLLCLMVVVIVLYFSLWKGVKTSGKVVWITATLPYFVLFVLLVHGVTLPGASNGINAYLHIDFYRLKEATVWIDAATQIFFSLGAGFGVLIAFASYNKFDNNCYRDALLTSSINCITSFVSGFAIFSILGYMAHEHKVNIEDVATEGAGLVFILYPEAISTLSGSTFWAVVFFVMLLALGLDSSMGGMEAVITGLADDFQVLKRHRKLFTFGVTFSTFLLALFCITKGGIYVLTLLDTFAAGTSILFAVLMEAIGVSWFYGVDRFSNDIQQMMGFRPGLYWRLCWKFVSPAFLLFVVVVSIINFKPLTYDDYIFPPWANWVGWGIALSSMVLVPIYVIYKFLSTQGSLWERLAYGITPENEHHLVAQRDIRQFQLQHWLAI
Experimental: as §1

wild-type DAT = target: T7, wild-type DAT (Homo sapiens, UniProt Q01959); assay: [3H]-DA uptake kinetic assay in COS-7 cells (Michaelis-Menten); type: cell-based; details: vehicle 634.8 ± 84.62, four independent experiments
T7 construct: expressed in transfected cells; host or cells: COS-7
T7 sequence (Q01959 whole entry): as the sequence (Q01959 whole entry Y156F) above, with F156Y counted along it
Experimental: Transport assays were performed as described previously. Briefly, COS-7 cells were transfected and plated in 96-well plates. Uptake experiments were performed 2 days after transfection. The media was removed, and the cells were washed with PBS (137-mM NaCl, 2.7-mM KCl, 4.3-mM Na2HPO4, and 1.4-mM KH2PO4, pH 7.4) containing 0.1-mM CaCl2, 1-mM MgCl2, […], and […] (PBSCM). Following washing, a constant concentration of radiolabeled substrate (50-nM [^3H]-DA) and increasing concentrations of unlabeled substrate (0.05–100-μM DA) were added, and the uptake was allowed to continue for 10 min at room temperature. The uptake was terminated by washing twice with PBS-CM. The cells were solubilized in scintillation cocktail and counted on a microplate scintillation and luminescence counter (PerkinElmer, Waltham, MA, USA). Background was obtained from non-transfected cells and subtracted. Data were fitted to a Michaelis−Menten equation using nonlinear regression to obtain Km and Vmax.

Y156F-DAT [3] = target: T2, Y156F-DAT; assay: DA uptake inhibition assay in COS-7 cells expressing DAT mutant; type: cell-based
Experimental: as §1

Y335A-DAT [4] = target: T1, Y335A-DAT; assay: as above; type: cell-based
Experimental: as §1

T1 sequence (Q01959 whole entry Y335A): as the sequence (Q01959 whole entry Y156F) above, with F156Y, Y335A counted along it

COC(=O)[C@H]1[C@@H](OC(=O)c2ccccc2)C[C@@H]2CC[C@H]1N2C [cocaine]
effect of Y335A mutation on potency (Y335A-DAT [1]): markedly impaired | effect of Y156F mutation on binding affinities (Y156F-DAT [2]): unaffected | labeling of W84C with MTSEA-biotin (DAT-XC/W84C mutant; coincubation with 100 µM cocaine (negative control)): not affected

CC(Cc1ccccc1)[n+]1cc([N-]C(=O)Nc2ccccc2)on1 (stereo not shown) [sydnocarb]
IC50 (hDAT; WT-DAT-transfected COS-7 cells, mutant comparison (Figure 6), three independent experiments, read-out: IC50, DA uptake inhibition): 439 ± 135 nM | fold more potent towards hDAT than towards hNET (hDAT; from dose-response IC50 values): 70 fold | fold more potent towards hDAT than towards hSERT (hDAT; from dose-response IC50 values): 1000 fold | IC50 (hDAT; hDAT transiently transfected COS-7 cells, three independent experiments (Figure 1A), listed as Sydnocarb, read-out: IC50, transport inhibition): 493 ± 140 nM | IC50 (hDAT; hDAT transiently transfected COS-7 cells, three independent experiments (Figure 1A), read-out: IC50, transport inhibition): 490 ± 140 nM | IC50 (hSERT): 495000 ± 17000 nM | IC50 (hSERT; listed as Sydnocarb): 495000 ± 17000 nM | IC50 (hNET): 34900 ± 14100 nM | Vmax of DAT-mediated [3H]-DA uptake (wild-type DAT; in the presence of 0.5 µM Sydnocarb): 455.6 ± 89.6 femtomole/min/well | Vmax of DAT-mediated [3H]-DA uptake (wild-type DAT; in the presence of 2.0 µM Sydnocarb): 195 ± 80.7 femtomole/min/well | biotinylation of W84C by MTSEA-biotin (DAT-XC/W84C mutant; coincubation with 1 µM sydnocarb, four independent experiments): significantly decreased | change in potency, Y156F-DAT versus WT-DAT (Y156F-DAT [3]; COS-7 cells): no significant changes | IC50 (Y156F-DAT [3]; Y156F-DAT-transfected COS-7 cells, mean ± SEM, three independent experiments): 262 ± 118 nM | reduction of potency for Y335A-DAT compared with WT-DAT (Y335A-DAT [4]; COS-7 cells): 3.5 fold | IC50 (Y335A-DAT [4]; Y335A-DAT-transfected COS-7 cells, mean ± SEM, three independent experiments): 1420 ± 201 nM

CCCCN1[C@@H]2CC[C@H]1CC(OC(c1ccc(F)cc1)c1ccc(F)cc1)C2 (stereo partly shown) [JHW-007]
effect of Y156F mutation on potency (Y156F-DAT [2]): significantly reduced
